The subject of experiment [1] is GFAP-LacZ transgene. Put plainly: β-galactosidase activity in T6/GFAP-lacZ cells. The experiment is classed as cell-based, rat. The method, then:
FIG. 12. (a) DBZIM and (b) TDBZIM attenuated GFAP-LacZ transgene as reported by β-galactosidase activity. Stable transfected T6 GFAP-LacZ cells were treated with compounds of 1-300 μM concentrations, and assayed after 24 h and 48 h. The (3-galactosidase activity was normalized to the total protein, and presented as relative value after comparing to the vehicle control. The data were presented as mean and SEM, N=6, *^cP<0.005, and *^dP<0.0005, when compared to the vehicle control.
Beta-galactosidase activity in extracts from T6/GFAP-lacZ cells treated by DBZIM or TDBZIM was measured using a chemiluminescent assay kit (Roche, Mannheim, Germany) in a 96-well plate format, according to the manufacturer's instructions. Briefly, cells were washed twice with ice-cold 1×PBS (pH 7.4), and lysed for 30 min at room temperature in the lysis buffer. The supernatant was collected for assays with a Tecan Sere II plate reader. Protein concentration was determined with a BCA protein assay kit (Pierce, Ill., USA). Specific β-galactosidase activity was obtained by normalizing against total cellular protein content.

In experiment [2] the test system is HLE cells. Put plainly: Cell cycle analysis (PI flow cytometry). The format is cell-based, human. Particulars: 72 h; for cells in the S phase: at respective IC-50, control 24%; for cells in the G2/M phase: at respective IC-50, control 30%; for cells in the G1 phase: at respective IC-50, control 50%. The protocol: FIG. 37. IMSs arrest Hepatocarcinoma cells. Cells were treated with vehicle and IBN 15, IBN 19, IBN 24, IBN 25 and IBN 32 for 72 h, and cell cycle distribution was assessed by flow cytometry. A) Example FACS profiles of propidium iodide-stained control cells, and cells treated with IMSs respectively. B) % of cells in cell cycle phase C) % of cells in subG0 population. Each value is the mean±S.D. of three determinations.
To perform cell cycle distribution analysis, 4×10^5 cells were plated in 10 cm dish. The cells (70% confluence) were serum-starved for 24 h to synchronize them in the G0 phase of the cell cycle. After 24 h incubation, the cells were replaced with fresh 10% DMEM medium and then treated 60 μM of IBN-15, 90 μM of IBN-19, 90 μM of IBN-24, 30 μM of […] and 20 μM of IBN-32) and 0.045% DMSO as control for 72 h. The floating and trypsinized adherent cells were collected and washed with PBS. The cell pellets were resuspended in 1 ml of PBS and fixed by the addition of 70% ice-cold ethanol and stored at −20° C. After incubation for 24 hr, the cells were re-pelleted by centrifugation, the cells were washed once with PBS and resuspended in 0.1 mL of PBS containing 100 μg/ml of RNase and then incubated at 37° C. for 15 min. Finally, the cells were stained with 0.5 ml of PI solution (100 μg/mL in PBS) for 30 min. Cell cycle distribution was detected by a BD FACS array flow cytometer (Becton Dickinson). Cells with sub-G0 DNA were classified as apoptotic cells.
A general note: In flow cytometry, cells or beads pass a laser one at a time.

The test system of experiment [3] is p53 signaling pathway-associated gene expression in HLE cells. Kind of experiment: Real-time PCR array of p53 signaling pathway-associated genes. The experiment is classed as cell-based, human. To be noted: 48 h; for increase of ATM gene expression vs control: IBN-19 90 uM, IBN-24 90 uM, IBN-25 40 uM. The method, then: FIG. 42. Real-Time PCR array analysis of p53 signaling pathway-associated gene expression. (A) Anti-apoptotic genes. (B) Growth inhibition gene SESN2. (C) Cell cycle check point genes. (D) Cell proliferation genes. (E) DNA repair gene ATM. The relative level of gene expression was normalized with housekeeping gene GAPDH. Values are expressed as mean±standard deviation.
Cells were seeded at a density of 4×10^5 cells per dish in 10 cm dishes. Next day, the cells were exposed to 90 uM of IBN-19, 90 uM of IBN-24, 40 uM of IBN-25 and 0.045% of DMSO (Dimethyl Sulphoxide) as the control. After 48 hrs, total RNAs were extracted from the cells using Nucleospin RNA II kit as per the manufacturer's istructions. RNA quality and yield were evaluated after spectrophotometer measurements.
The human apoptosis PCR array (RT^2 Profiler) was used to analyze mRNA levels of 84 key genes involved in apoptosis, in a 96-well format, according to the manufacturer's instructions (Super Array Bioscience). First-strand cDNA was synthesized with 1 μg of RNA by using a PCR array first strand-synthesis kit (C-03; Super array Bioscience). This kit uses reverse transcriptase (Power Script; Super array Bioscience) and a combination of random primers and oligo dT primers. The total volume of the reaction was 20 μL diluted to 100 μL. PCR reactions were performed using real-time PCR (79s00HT 96-well block with RT^2 Real-Time SYBR Green PCR master mix PA-012; Applied Biosystems Instruments 7500). The total volume of the PCR reaction was 25 μl. An equivalent of […] of RNA was applied to the PCR reaction. The thermocycler parameters were 95° C. for 10 minutes, followed by 40 cycles of 95° C. for 15 seconds and 60° C. for 1 minute. Relative changes in gene expression were calculated using the ΔΔCt (cycle threshold) method. An average of the number of cycles of the five housekeeping genes, GAPDH, Actin-β, β2m, Hprt1, and Rpl13d, was used to normalize the expression between samples. The expression data are presented as fold regulation. GAPDH gene expression levels were utilized as an internal control to normalize the data. Reported fold changes in expression are the ratios of treatment over control values.
To obtain more information on how the IMSs influence other gene expression in the HLE cells, 84 genes related to p53 signal transduction were profiled by using the RT^2 Profiler array (Super Array Bioscience) (FIG. 42A, B, C, D, E). The array includes keys genes relevant to p53, apoptosis, cell cycle, cell growth, proliferation, differentiation, and DNA repair.
In general terms: Quantitative PCR measures a nucleic acid by following its amplification.

As for `[Br-].c1ccc(Cn2cc[n+](Cc3ccccc3)c2)cc1` [DBZIM, 1,3-bisbenzylimidazolium bromide], the “suppression of β-galactosidase activity” value in experiment [1] (100 μM) was determined as 25%; in experiment [1] (300 μM) it was 34%.

As to `Cc1ccc(C[n+]2ccn(Cc3ccccc3)c2)cc1.[Cl-]` [IBN-24, 1-benzyl-3-(4-methylbenzyl)-imidazolium chloride], in experiment [2], the “cells in the S phase” value was 11.34%, the “cells in the G2/M phase” value was found to be 16.3% and the “cells in the G1 phase” value was 28.6%. Besides, in experiment [3], the “anti-apoptotic gene BCl-2 expression” value is “significantly down regulated”; the “cell proliferation genes (Mcl1, Egr1, Foxo3, Jun, Mdm4, Nf1, Prm1D, Sesn1, E2f11, Prkca, Brca1)” value is “significantly down regulated”; the “increase of ATM gene expression vs control” value was 4.6 folds.

As to “1,3,5-tris(4-methyl-imidazolium)-linked cyclophane.3Br [TDBZIM]”, the “suppression of β-galactosidase activity (transient)” value in experiment [1] (100 μM, 24 h) is 20%.

Consider `CC(=O)Oc1ccc(C[n+]2ccn(Cc3ccccc3)c2C)cc1.[Cl-]` [IBN-19, 1-benzyl-3-(4-acetate-benzyl)-2-methyl-imidazolium chloride], for which, in experiment [2], the “cells in the S phase” value is 19.8%, the “cells in the G2/M phase” value came out at 23.7% and the “cells in the G1 phase” value stood at 29%. Besides, in experiment [3], the SESN2 gene expression result is reported as “markedly induced” and the “increase of ATM gene expression vs control” value is given as 36 folds.

The values above are taken from US9072729B2, “Method for treating fibrosis and cancer with imidazolium and imidazolinium compounds” (Agency for Science, Technology and Research, priority 2008, dated 2015).
